Source: paper doi:10.1101/2024.07.22.604525v1 (bioRxiv, 2024)
Like-named read-outs stand apart in the source and are kept apart here. Where a SMILES comes first, the peptide text is derived from it.

Legend:
[1] = test system: HFD-fed mice; assay: HFD-fed obese mice, VAMP for 1 week; assay type: in vivo; conditions: HFD 8 weeks, then VAMP 50 mg/kg daily for 1 week, vs vehicle, n = 6
[2] = test system: other strains of Bacteroides; assay: Single-strain growth in culture; assay type: cell-based; conditions: VAMP 50 μM vs PBS, anaerobic, 48 h, OD600 ratio
[3] = test system: C57BL/6J male SPF mice; assay: Preliminary safety evaluation in mice; assay type: in vivo; conditions: 10 mg/kg and 100 mg/kg, gavage 3 times per week, 4 weeks, n = 6 mice/group
[4] = test system: A. muciniphila; assay type: in vivo; conditions: HFD-fed mice, VAMP 50 mg/kg oral gavage, 8 weeks; colonic contents, 16S rRNA
[5] = test system: HFD-induced obese mice; assay: HFD-induced obese mice, VAMP and/or benzydamine for 4 weeks; assay type: in vivo; conditions: HFD 8 weeks, then VAMP 50 mg/kg three times per week for 4 weeks, n = 6
[6] = test system: HFD-fed mice; assay type: in vivo; conditions: 8 weeks
[7] = test system: ob/ob mice; assay: ob/ob mice, VAMP for 4 weeks; assay type: in vivo; conditions: VAMP 50 mg/kg daily oral gavage, n = 6
[8] = test system: HFD-fed mice; assay: HFD-fed mice, TPH or sitagliptin for 8 weeks; assay type: in vivo; conditions: sitagliptin 12.5 mg/kg daily oral gavage
[9] = HFD plus VAMP 50 mg/kg daily oral gavage, vs HFD-fed control
[10] = HFD plus VAMP 50 mg/kg daily oral gavage, vs vehicle, n = 6

CSCC[C@H](NC(=O)[C@H](C)NC(=O)[C@@H](N)C(C)C)C(=O)N1CCC[C@H]1C(=O)O [VAMP] (H-VAMP-OH; N-terminus and C-terminus assumed)
energy intake [1]: no significant differences
plasma active GLP-1 level [1]: increased
plasma total GLP-1 level [1]: without altering
growth of other strains of Bacteroides [2]: failed to stimulate the growth
side effects in mice (body weight, food intake, ALT, AST, UREA, CRE) [3]: did not induce any obvious side effects
abundance of Akkermansia (genus level) [4]: significantly increased
body weight [5]: significantly decreased
thickness of colonic mucus layer ([6]; Alcian blue-stained sections, HFD plus VAMP 50 mg/kg): increased thickness of mucus layer
plasma IL-1β level [6, 9]: significantly reduced
plasma TNF-α level [6, 9]: significantly reduced
plasma endotoxin (LPS) level [6, 9]: significantly reduced
fat weight/body weight ratio ([6]; HFD plus VAMP 50 mg/kg daily oral gavage, vs vehicle): significantly decreased
size of adipocytes in white adipose tissue ([6]; HFD plus VAMP 50 mg/kg daily oral gavage, vs vehicle, 3 mice per group): significantly decreased
FBG [6, 10]: significantly decreased
body weight [6, 10]: significantly decreased
fasting insulin level [6, 10]: decreased fasting insulin levels
glucose tolerance (OGTT) [6, 10]: improved glucose tolerance
intestinal active GLP-1 level [6, 10]: significantly increased
intestinal total GLP-1 level [6, 10]: without affecting
plasma active GLP-1 level [6, 10]: significantly increased
plasma total GLP-1 level [6, 10]: without affecting
expression of intestinal Tjp1, Ocln, Cldn3, and Muc2 ([6]; colonic tissue mRNA, RT-qPCR, HFD plus VAMP 50 mg/kg): upregulate
FBG [7]: steadily decreased
body weight [7]: no significant difference
energy intake [7]: no significant difference
intestinal DPP-IV activity [7]: suppressed intestinal DPP-IV activity
intestinal active GLP-1 level [7]: increased the levels
plasma active GLP-1 level [7]: increased the levels

N[C@@H](CC(=O)N1CCn2c(nnc2C(F)(F)F)C1)Cc1cc(F)c(F)cc1F [sitagliptin, Sitagliptin]
glucose metabolism in obese mice [8]: effectively improved glucose metabolism
